Assay results taken from patent US20250250308A1, “METHODS AND COMPOSITIONS WITH ANTIFUNGAL ACTIVITY” (priority 2022, published 2025).

Legend:
C. neoformans = experiment: Survival of C. elegans infected with C. neoformans; format: in vivo; settings: 1 nM peptide
Description: FIGS. 6A-6D: EntV peptides have activity against many fungal species and strains. Survival over time of C. elegans infected with C. auris, (FIG. 6A), C. neoformans, (FIG. 6B), and C. albicans, (FIG. 6C), paired clinical isolates before (AzS: fluconazole-susceptability) and after gaining fluconazole resistance (AzR), (FIG. 6D). Peptides were added at 1 nM and fluconazole at 4 ug/ml. Statistical differences in survival were compared to animals to the DMSO vehicle control by Mantel-Cox log rank analysis. An n of 60 was used and one representative trial is shown. Exact p values from top to bottom: (FIG. 6A) <0.0001, <0.0001, (FIG. 6B) <0.0001, <0.0001, (FIG. 6C) 0.0013, 0.0004, 0.0035, (FIG. 6D) 0.0050, 0.0040, 0.5539.
EntV peptides have activity against other fungal species and strains. […] Paired clinical isolates of C. albicans, in which fluconazole-resistance had been gained following in-patient evolution were tested and it was determined that animals infected with both the original strain as well as the fluconazole-resistant descendent were protected by EntV ([…]).
Killing of C. elegans by C. albicans. […] Plates were incubated at 25° C., and worm death was scored daily. Kaplan-Meier survival curves were generated and analyzed as described in the quantification and statistical analysis section.

C. albicans = experiment: Growth of C. albicans in shaking cultures; format: cell-based
Description: These shorter peptides are no longer bacteriocins, having separated the antifungal and antibacterial activities. Furthermore, despite its robust protection against infection, EntV is not toxic to C. albicans. Growth of C. albicans was unaffected when EntV was added to shaking cultures in concentrations as high as 30 μM

With VAGQLALWAVQC [12aa] as the molecule, how does the “Survival of C. elegans infected with C. neoformans” value (C. neoformans) read?
Its value is “protected C. neoformans infected worms from death”.

B1: EntV: 68 amino acid active C-terminal form of the E. faecalis bacteriocin EntV (SEQ ID NO: 14) (protein, listed as Enterococcus faecalis)
chain: LGSCVANKIKDEFFAMISISAIVKAAQKKAWKELAVTVLRFAKANGLKTNAIIVAGQLALWAVQCGLS
B1 was tested. Which “Highest concentration at which growth of C. albicans was unaffected” value (C. albicans) did it give?
Its value is ≥ 30 µM.
